According to patent publication US6903104B2, “Indol-3-YL-2-oxoacetamide compounds and methods of use thereof” (National Health Research Institutes, priority 2001, dated 2005):
pIC50: −log10 of the molar value.

Legend:
lung A549 cancer cells = test: In vitro cytotoxicity MTS assay, lung A549; assay type: cell-based, human; details: 72 hours
Description: (§1) A panel of human cancer cells, gastric NUGC3 and HR, nasopharyngeal HONE1, hepatocellular HEP G2 and HA-22T, colorectal DLD1, lung A549, prostate PC3, breast MCF7 and its adriamycin-resistant MCF7/ADR subline, uterus MES-SA and its adriamycin-resistant MES-SA/Dx5 subline, is purchased from Food Industry Research and Development Institute, Hsinchu, Taiwan R.O.C. or American Type Culture Collection, Manassas, Va. U.S.A., are used in in vitro cytotoxicity assays. The human cells are seeded at a cell density of 3000 or 4500 cells/100 μl/well in 96-well flat-bottom plates and incubated for 24 hours at 37° C. in a 5% CO2 incubator. The testing compounds are dissolved in dimethyl sulfoxide (DMSO) and further diluted into the culture medium for treatments of human cancer cells in vitro. The drug-containing media has a final DMSO concentration of ≦0.3%. The compounds of this invention are prepared in culture media for testing at a range of concentrations from 10, 1, 0.1, 0.01 to 0.001 μM. Each compound solution is (200 μl/well in duplicate) in the cell plates and is treated for 72 hours at 37° C., 5% CO2 in an incubator. Actinomycin D at 5 μM and 0.3% DMSO are used as the positive and vehicle controls, respectively. A colorimetric assay using 3-(4,5-dimethylthiazol-2-yl)-5-(3-carboxymethoxyphenyl)-2-(4-sulfophenyl)-2H-tetrazolium (MTS) and phenazine methosulfate (PMS) is used to determine the potency of the compounds. This assay measures cell viability based on the cellular activity in conversion of a tetrazolium salt into a colored soluble formazan product. The optical density (OD) values are measured at 490 nm with a 1420 multilabel counter VICTOR® from Wallac, Turku, Finland. All of the measured values are subtracted with that of the blank control wells without cells before further calculations. The efficacy data are expressed as a percentage normalized to the vehicle controls as calculated in the following formulae. Inhibitory potency (% of vehicle control)=[(OD490compound−OD490blank)/(OD490vehicle−OD490blank)]×100%. The concentration (IC50) of a test compound that inhibits 50% of the cellular activity is determined.

[1] = test system: adriamycin-resistant MCF7/ADR subline; test: In vitro cytotoxicity MTS assay, adriamycin-resistant MCF7/ADR; assay type: cell-based, human; details: 72 hours
Description: as §1

[2] = test system: prostate PC3 cancer cells; test: In vitro cytotoxicity MTS assay, prostate PC3; assay type: cell-based, human; details: 72 hours
Description: as §1

[3] = test system: rat aorta endothelial cells; test: Rat aorta tube formation assay (angiogenesis inhibition); assay type: cell-based, Spraque-Dawley rats; set-up: key: Noninhibitors are indicated by the symbol (−), meaning that the extent of endothelial cell growth is essentially at the same level as that of the control; The most potent inhibitors receive a score of (+++++), indicating essentially no measurable endothelial cell growth; details: 5 days
Description: The procedures are modified from previous reports (Burbridge and West 2001; Bauer et al. 2000; Nicosai and Ottinetti 1990a) and described as follows. Male Spraque-Dawley rats of 6-8 weeks old are purchased from the National Laboratory Animal Breeding and Research Center (Taipei, Taiwan). The animals are anesthetized with urethane (2 g/kg, intraperitoneal) and the thoracic aortas are quickly harvested in a laminar flow hood. The aortas are rinsed with ice-cold normal saline with 10 μg/ml gentamicin and the attached fibroadipose tissues are removed using micro-dissection scissors. The aortas are cross-sectioned into rings of 1 mm in thickness. A mixture of Matrigel®, purchased from BD Biosciences, solution and the EBM-II medium, purchased from BioWhittaker Inc., (1:1) with 2% FBS, 0.25 mg/ml, amphotericin B and 10 μg/ml gentamicin is prepared and added at 100 μl to each well of a 48-well plate. The mixture is allowed to gel at 37° C. Aorta rings are then placed onto the gelled matrix and embedded in an additional 150 μl per well of the mixture solution and allowed to gel at 37° C. The aorta rings are then covered with 125 μl of the EGM-II medium and incubated overnight in humidified incubator with 5% CO2/95% air at 37° C. After removal of the EGM-II from the established aorta cultures, the compound-containing media are applied at 300 μl per well to the cultures and then incubated in 5% CO2/95% air at 37° C. for 5 days. The cultures are then subject to the 3-[4,5-dimethylthiazol-2-yl]-2,5 diphenyl-2H-tetrazolium bromide (MTT) or 3-(4,5-dimethylthiazol-2-yl)-5-(3-carbomethoxyphenyl)-2H-tetrazolium (MTS) assay and OD490 nm values measured. The testing compounds are dissolved in dimethyl sulfoxide (DMSO) and prepared in EBM-II media with at a final concentration of DMSO less than 0.1%.
The capillary-like, tube structure of the outgrown rat aorta endothelial cells is easily visualized by MTT staining. The medium on top of the matrix is removed from the established aorta ring cultures. MTT solution of 5 mg/ml in saline is added to the cultures at 100 μl/well and the cultures are incubated in a CO2 incubator at 37° C. for 24 hr. The stained cultures are then examined under a microscope DMIRB from Leica and photos taken with a digital camera.
Inhibition activity is also assessed in the following manner. The reductive reaction of MTS initiated by the viable cellular mitochondrial activity is used as a basis for the measurement of cell viability (Cory et al. 1991; Gieni et al. 1995). To the rat aorta ring cultures 300 μl of a solution containing 100 μg MTS and 1 μg, phenazine methosulfate is added per well and incubated in 5% CO2/95% air at 37° C. for 24 hr. During the incubation, MTS is converted to formazan product. At the end of incubation, the solution overlaying the gel is well-mixed and 100 μl aliquots are transferred into a 96-well plate for measurement of OD490 nm with a spectrophotometer VICTOR™-II from Wallac Oy.
The compounds listed in Table 3 are screened for angiogenesis inhibition. The control compound, ASTA, is D-24851, N-[pyridin-4-yl]-[1-(4-chlorobenzyl)-indol-3-yl]-glyoxylic acid amide. Noninhibitors are indicated by the symbol (−), meaning that the extent of endothelial cell growth is essentially at the same level as that of the control.

[4] = test system: adriamycin-resistant MES-SA/Dx5 subline; test: In vitro cytotoxicity MTS assay, adriamycin-resistant MES-SA/Dx5; assay type: cell-based, human; details: 72 hours
Description: as §1

[5] = test system: colorectal DLD1 cancer cells; test: In vitro cytotoxicity MTS assay, colorectal DLD1; assay type: cell-based, human; details: 72 hours
Description: as §1

[6] = test system: hepatocellular HEP G2 cancer cells; test: In vitro cytotoxicity MTS assay, hepatocellular HEP G2; assay type: cell-based, human; details: 72 hours
Description: as §1

[7] = test system: hepatocellular HA-22T cancer cells; test: In vitro cytotoxicity MTS assay, hepatocellular HA-22T; assay type: cell-based, human; details: 72 hours
Description: as §1

[8] = test system: gastric NUGC3 cancer cells; test: In vitro cytotoxicity MTS assay, gastric NUGC3; assay type: cell-based, human; details: 72 hours
Description: as §1

SMILES	pIC50 (lung A549 cancer cells)	pIC50 [1]	pIC50 [2]	Inhibition Score ([3]; final conc. 0.3 μg/ml)	pIC50 [4]	pIC50 [5]	pIC50 [6]	pIC50 [7]	pIC50 [8]	Inhibition Score ([3]; final conc. 1 μg/ml)
Cc1cc(NC(=O)C(=O)c2cn(Cc3ccc(C#N)cc3)c3ccccc23)sn1 [Compound 25]	6.26	5.28	6.16	+++++	6.40	6.27	5.75	6.16	6.29	
Cc1cc(Cn2cc(C(=O)C(=O)Nc3cc(C)ns3)c3ccccc32)on1 [Compound 56]	6.25	5.30	6.20	+++++	6.43	7.39	7.03	6.91	7.92	−
